assay: recombinant barcode read abundance after kanamycin selection (control-corrected) (log10(CPM+1)); higher = more efficient recombination; sequences stand for … in AGTGCAGAGAAAATCGGCCAGTTTTCTCTGCCTGCAGTCCGCATGCCGT…AGATTTATGCAGCGGACTGCCTTTCTCCCAAAGTGATAAACCGGACAGTATCATGGACCGGTTTTCCCGGTAATCCGTATTTGCAAGGTTGGTTTCACT; site = the 11-nt target
Outline: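 This pooled E. coli screen matched targets with IS621 bridge RNA target-binding loops. Plating was done in duplicate on chloramphenicol/ampicillin LB agar as a control and on chloramphenicol/ampicillin/kanamycin plus 0.1 mM IPTG. Recombination efficiency reflects barcode counts at recombinant junctions as counts per million, averaged and control-corrected. The figures are log10(CPM+1).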
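Further: IS621 recombinase and bridge RNA in Escherichia coli cells.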

Row | Sequence | recombinant barcode read abundance (log10)
1 | CTGCACCCTTGGGTTCTAACCTGTTGCAG (site GCGCACCCTCT) | 0.0743
2 | CTGCATACTTGGGTTCTAACCTGTTGCCT (site CAGCATACTAG) | 0.17
3 | CTGCATACTTGGGTTCTAACCTGTTGCCT (site CCGCATACTAG) | 0.217
4 | CTGCATACTTGGGTTCTAACCTGTTGCCT (site CGGCATACTAG) | 0.0131
5 | CTGCATACTTGGGTTCTAACCTGTTGCCT (site CTGCATACTAG) | 0.86
6 | CTGCGCCCTTGGGTTCTAACCTGTTGCCT (site CTGAGCCCTAG) | 0.0517
7 | CTGCGCCCTTGGGTTCTAACCTGTTGCCT (site CTGCGCCCTAG) | 1.1
8 | CTGCGCCCTTGGGTTCTAACCTGTTGCCT (site CTGGGCCCTAG) | 0.249
9 | CTGCGCCCTTGGGTTCTAACCTGTTGCCT (site CTGTGCCCTAG) | 0.567
10 | CTGCGTGCTTGGGTTCTAACCTGTTGCCT (site CAGCGTGCTAG) | 0.503
11 | CTGCGTGCTTGGGTTCTAACCTGTTGCCT (site CCGCGTGCTAG) | 0.909
12 | CTGCGTGCTTGGGTTCTAACCTGTTGCCT (site CGGCGTGCTAG) | 0.176
13 | CTGCGTGCTTGGGTTCTAACCTGTTGCCT (site CTGCGTGCTAG) | 0.83
14 | CTGCTACCTTGGGTTCTAACCTGTTGCCT (site CAGCTACCTAG) | 0.706
15 | CTGCTACCTTGGGTTCTAACCTGTTGCCT (site CCGCTACCTAG) | 0.386
16 | CTGCTACCTTGGGTTCTAACCTGTTGCCT (site CGGCTACCTAG) | 0.0908
17 | CTGCTACCTTGGGTTCTAACCTGTTGCCT (site CTGCTACCTAG) | 1.13
18 | CTGCTAGCTTGGGTTCTAACCTGTTGCAG (site CTGCTAGCTCT) | 1.08
19 | CTGCTAGCTTGGGTTCTAACCTGTTGCAG (site GACAGGCCTAC) | 0.289
20 | CTGGAACCTTGGGTTCTAACCTGTTGCGG (site CTAGAAGCTCC) | 0
21 | CTGGAACCTTGGGTTCTAACCTGTTGCGG (site CTGGAACCTCC) | 1.25
22 | CTGGAGTCTTGGGTTCTAACCTGTTGCCT (site CTGGAGTCTAG) | 2.33
23 | CTGGAGTCTTGGGTTCTAACCTGTTGCCT (site CTGGCGTCTAG) | 0.322
24 | CTGGAGTCTTGGGTTCTAACCTGTTGCCT (site CTGGGGTCTAG) | 0.412
25 | CTGGAGTCTTGGGTTCTAACCTGTTGCCT (site CTGGTGTCTAG) | 0.793
26 | CTGGTATCTTGGGTTCTAACCTGTTGCTT (site CTGGTATCTAA) | 0.509

Row | Sequence | recombinant barcode read abundance (log10)
27 | CTGGTATCTTGGGTTCTAACCTGTTGCTT (site GGCTACCCTTT) | 0.0591
28 | CTGGTGTCTTGGGTTCTAACCTGTTGCCT (site CTGGAGTCTAG) | 0.0957
29 | CTGGTGTCTTGGGTTCTAACCTGTTGCCT (site CTGGCGTCTAG) | 0.248
30 | CTGGTGTCTTGGGTTCTAACCTGTTGCCT (site CTGGGGTCTAG) | 0.0939
31 | CTGGTGTCTTGGGTTCTAACCTGTTGCCT (site CTGGTGTCTAG) | 2.42
32 | CTGTATACTTGGGTTCTAACCTGTTGCCA (site CTATATACTTG) | 0.113
33 | CTGTATACTTGGGTTCTAACCTGTTGCCA (site CTGTATACTTG) | 0.175
34 | CTGTCGCCTTGGGTTCTAACCTGTTGCCT (site CTATCGCCTAG) | 0.699
35 | CTGTCGCCTTGGGTTCTAACCTGTTGCCT (site CTCTCGCCTAG) | 0.0526
36 | CTGTCGCCTTGGGTTCTAACCTGTTGCCT (site CTGTCGCCTAG) | 0.276
37 | CTGTCGCCTTGGGTTCTAACCTGTTGCCT (site CTTTCGCCTAG) | 0.0305
38 | CTGTCTCCTTGGGTTCTAACCTGTTGCCT (site ATGTCTCCTAG) | 0.221
39 | CTGTCTCCTTGGGTTCTAACCTGTTGCCT (site CTGTCTCCTAG) | 1.29
40 | CTGTCTCCTTGGGTTCTAACCTGTTGCCT (site GTGTCTCCTAG) | 0.0715
41 | CTGTCTCCTTGGGTTCTAACCTGTTGCCT (site TTGTCTCCTAG) | 0.3
42 | CTGTGAACTTGGGTTCTAACCTGTTGCCT (site CAGTGAACTAG) | 0.128
43 | CTGTGAACTTGGGTTCTAACCTGTTGCCT (site CCGTGAACTAG) | 0.133
44 | CTGTGAACTTGGGTTCTAACCTGTTGCCT (site CGGTGAACTAG) | 0.216
45 | CTGTGAACTTGGGTTCTAACCTGTTGCCT (site CTGTGAACTAG) | 0.679
46 | CTGTGCCCTTGGGTTCTAACCTGTTGCCT (site CTGAGCCCTAG) | 0.105
47 | CTGTGCCCTTGGGTTCTAACCTGTTGCCT (site CTGCGCCCTAG) | 0.0771
48 | CTGTGCCCTTGGGTTCTAACCTGTTGCCT (site CTGGGCCCTAG) | 0.0673
49 | CTGTGCCCTTGGGTTCTAACCTGTTGCCT (site CTGTGCCCTAG) | 0.574
50 | CTGTTCCCTTGGGTTCTAACCTGTTGCGG (site CTGATCCCTCC) | 0.291
51 | CTGTTCCCTTGGGTTCTAACCTGTTGCGG (site CTGCTCCCTCC) | 0.797
52 | CTGTTCCCTTGGGTTCTAACCTGTTGCGG (site CTGGTCCCTCC) | 0.129

Row | Sequence | recombinant barcode read abundance (log10)
53 | CTGTTCCCTTGGGTTCTAACCTGTTGCGG (site CTGTTCCCTCC) | 1.05
54 | CTTACGGCTTGGGTTCTAACCTGTTGCCT (site CTTACAGCTAG) | 0.186
55 | CTTACGGCTTGGGTTCTAACCTGTTGCCT (site CTTACCGCTAG) | 0.196
56 | CTTACGGCTTGGGTTCTAACCTGTTGCCT (site CTTACGGCTAG) | 0.0569
57 | CTTACGGCTTGGGTTCTAACCTGTTGCCT (site CTTACTGCTAG) | 0.262
58 | CTTCATCCTTGGGTTCTAACCTGTTGCCT (site CTTCAACCTAG) | 0.0199
59 | CTTCATCCTTGGGTTCTAACCTGTTGCCT (site CTTCACCCTAG) | 0.34
60 | CTTCATCCTTGGGTTCTAACCTGTTGCCT (site CTTCAGCCTAG) | 0.0613
61 | CTTCATCCTTGGGTTCTAACCTGTTGCCT (site CTTCATCCTAG) | 0.466
62 | CTTCGGACTTGGGTTCTAACCTGTTGCTT (site CTTCGGACTAA) | 0.769
63 | CTTCGGACTTGGGTTCTAACCTGTTGCTT (site GAGTCTCCTCC) | 0.133
64 | CTTCGGGCTTGGGTTCTAACCTGTTGCAA (site CTTCGGACTTT) | 0.217
65 | CTTCGGGCTTGGGTTCTAACCTGTTGCAA (site CTTCGGGCTTT) | 0.915
66 | CTTCGTCCTTGGGTTCTAACCTGTTGCGT (site CTTCGTCCTAA) | 0.102
67 | CTTCGTCCTTGGGTTCTAACCTGTTGCGT (site CTTCGTCCTAC) | 1.59
68 | CTTCGTCCTTGGGTTCTAACCTGTTGCGT (site CTTCGTCCTAG) | 0.126
69 | CTTCGTCCTTGGGTTCTAACCTGTTGCGT (site CTTCGTCCTAT) | 0.797
70 | CTTGCGACTTGGGTTCTAACCTGTTGCTT (site CTTGCGACTAA) | 0.391
71 | CTTGCGACTTGGGTTCTAACCTGTTGCTT (site TGCATAGCTTG) | 0.0884
72 | CTTGCTCCTTGGGTTCTAACCTGTTGCAT (site AGACGGACTTG) | 0.0627
73 | CTTGCTCCTTGGGTTCTAACCTGTTGCAT (site CTTGCTCCTAT) | 0.227
74 | CTTTAGTCTTGGGTTCTAACCTGTTGCTA (site AAAGGTCCTCT) | 0.0491
75 | CTTTAGTCTTGGGTTCTAACCTGTTGCTA (site CTTTAGTCTTA) | 0.174
76 | CTTTCACCTTGGGTTCTAACCTGTTGCCT (site CTTTCACCTAG) | 0.547
77 | CTTTCACCTTGGGTTCTAACCTGTTGCCT (site CTTTCGTCTAG) | 0.0614

Reference: the supplement of paper PMC11208160
